This assay has as its system test plant species. Nature of the assay: Post-emergent herbicidal activity test (greenhouse, foliar spray, visual growth reduction). It counts as in vivo. The following applies: post-emergence, 336 h, 140 g ai/ha. In short, it runs like this:
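Visual percent injury (0-100) rated 14 d after treatment, relative to nontreated and solvent-blank plants. Test plants at first or second true leaf stage received an overhead track-sprayer application at 187 L/ha. Compounds were formulated in aqueous acetone/DMSO carrier containing crop oil concentrate and X-77 surfactant.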

Where [1] appears, read: ECHCG: barnyardgrass (Echinochloa crus-galli), 14 days after application, read-out: Visual Growth Reduction (%) 14 Days After Application, ECHCG.
Setting [2] is: IPOHE: ivy-leaf morning glory (Ipomoea hederacea), 14 days after application, read-out: Visual Growth Reduction (%) 14 Days After Application, IPOHE.
Where [3] appears, read: KCHSC: kochia (Bassia scoparia), 14 days after application, read-out: Visual Growth Reduction (%) 14 Days After Application, KCHSC.
[4] abbreviates: ORYSA: rice (Oryza sativa), 14 days after application, read-out: Visual Growth Reduction (%) 14 Days After Application, ORYSA.
Where [5] appears, read: SETFA: giant foxtail (Setaria faberi), 14 days after application, read-out: Visual Growth Reduction (%) 14 Days After Application, SETFA.
Setting [6] is: SORVU: grain sorghum (Sorghum vulgare), 14 days after application, read-out: Visual Growth Reduction (%) 14 Days After Application, SORVU.
Where [7] appears, read: STEME: common chickweed (Stellaria media), 14 days after application, read-out: Visual Growth Reduction (%) 14 Days After Application, STEME.
Setting [8] is: TRZAS: wheat, spring (Triticum aestivum), 14 days after application, read-out: Visual Growth Reduction (%) 14 Days After Application, TRZAS.
[9] abbreviates: blackgrass (Alopecurus myosuroides), 14 Days After Application, read-out: Visual Growth Reduction (%) ALOMY.
Setting [10] is: canada thistle (Cirsium arvense), 14 Days After Application, read-out: Visual Growth Reduction (%) CIRAR.
[11] abbreviates: crabgrass (Digitaria sanguinalis), 14 Days After Application, read-out: Visual Growth Reduction (%) DIGSA.
Setting [12] is: lambsquarters (Chenopodium album), 14 Days After Application, read-out: Visual Growth Reduction (%) CHEAL.
[13] abbreviates: redroot pigweed (Amaranthus retroflexus), 14 Days After Application, read-out: Visual Growth Reduction (%) AMARE.
[14] abbreviates: wild oat (Avena fatua), 14 Days After Application, read-out: Visual Growth Reduction (%) AVEFA.
The mark [15] stands for this setting: yellow nutsedge (Cyperus esculentus), 14 Days After Application, read-out: Visual Growth Reduction (%) CYPES.

Like-named read-outs stand apart in the source and are kept apart here.

With `COC(=O)c1nc(-c2ccc(Cl)c(C(C)F)c2Cl)ccc1Cl` (stereo not drawn) [F282, Methyl 3-chloro-6-(2,4-dichloro-3-(1-fluoroethyl)phenyl) picolinate], the pest or weed control at 140 g/ha by setting is: under setting [1], 0 to 29%; under setting [2], 45 to 59%; under setting [3], 0 to 29%; under setting [4], 0 to 29%; under setting [5], 0 to 29%; under setting [6], 0 to 29%. In addition, the pest or weed control at 140 g/ha runs as follows: under setting [7], 0 to 29%; under setting [8], 0 to 29%; under setting [9], 0 to 29%; under setting [10], 60 to 74%; under setting [11], 0 to 29%; under setting [12], 85 to 94%. Moreover, the pest or weed control at 140 g/ha is, setting by setting: under setting [13], 45 to 59%; under setting [14], 0 to 29%; under setting [15], 0 to 29%.
`CCCCOC(=O)c1nc(-c2ccc(Br)c(OC)c2F)ccc1Cl` [F283, Butyl 6-(4-bromo-2-fluoro-3-methoxyphenyl)-3-chloropicolinate]: the pest or weed control at 140 g/ha runs as follows: under setting [1], 0 to 29%; under setting [2], 0 to 29%; under setting [3], 75 to 84%; under setting [4], 0 to 29%; under setting [5], 0 to 29%; under setting [6], 0 to 29%. The pest or weed control at 140 g/ha lay within 0 to 29% under setting [7]; 0 to 29% under setting [8]; 0 to 29% under setting [9]; 85 to 94% under setting [10]; 0 to 29% under setting [11]; 85 to 94% under setting [12]. Also, the pest or weed control at 140 g/ha under setting [13] fell in the range of 30 to 44%, the pest or weed control at 140 g/ha under setting [14] is 0 to 29% and the pest or weed control at 140 g/ha under setting [15] was 30 to 44%.
Take `COC(=O)c1nc(-c2ccc(Cl)nc2Cl)ccc1Cl` [F284, Methyl 2′,5,6′-trichloro-[2,3′-bipyridine]-6-carboxylate]: the pest or weed control at 140 g/ha was 0 to 29% under setting [1]; 60 to 74% under setting [2]; 0 to 29% under setting [3]; 0 to 29% under setting [4]; 0 to 29% under setting [5]; 85 to 94% under setting [6]. Further, the pest or weed control at 140 g/ha by setting is: under setting [7], 0 to 29%; under setting [8], 0 to 29%; under setting [9], 0 to 29%; under setting [10], 30 to 44%; under setting [11], 0 to 29%; under setting [12], 0 to 29%. The pest or weed control at 140 g/ha lay within 0 to 29% under setting [13], 0 to 29% under setting [14] and 0 to 29% under setting [15].
Turning to `CCC(F)c1c(Cl)ccc(-c2ccc(Cl)c(C(=O)OC)n2)c1F` (stereo not drawn) [F285, Methyl 3-chloro-6-(4-chloro-2-fluoro-3-(1-fluoropropyl)phenyl) picolinate], the pest or weed control at 140 g/ha runs as follows: under setting [1], 0 to 29%; under setting [2], 0 to 29%; under setting [3], 0 to 29%; under setting [4], 0 to 29%; under setting [5], 0 to 29%; under setting [6], 0 to 29%. The pest or weed control at 140 g/ha fell in the range of 0 to 29% under setting [7]; 0 to 29% under setting [8]; 0 to 29% under setting [9]; 30 to 44% under setting [10]; 0 to 29% under setting [11]; 0 to 29% under setting [12]. Besides, the pest or weed control at 140 g/ha under setting [13] was in the range of 0 to 29%, the pest or weed control at 140 g/ha under setting [14] lay in the range of 0 to 29% and the pest or weed control at 140 g/ha under setting [15] lay within 0 to 29%.
`CCCOC(=O)c1nc(-c2ccc(Cl)c(OC)c2F)ccc1Cl` [F286, Propyl 3-chloro-6-(4-chloro-2-fluoro-3-methoxyphenyl) picolinate]: the pest or weed control at 140 g/ha by setting is: under setting [1], 0 to 29%; under setting [2], 60 to 74%; under setting [3], 60 to 74%; under setting [4], 0 to 29%; under setting [5], 0 to 29%; under setting [6], 0 to 29%. The pest or weed control at 140 g/ha by setting is: under setting [7], 0 to 29%; under setting [8], 0 to 29%; under setting [9], 0 to 29%; under setting [10], 60 to 74%; under setting [11], 0 to 29%; under setting [12], 75 to 84%. The pest or weed control at 140 g/ha lay in the range of 0 to 29% under setting [13], 0 to 29% under setting [14] and 0 to 29% under setting [15].
Consider `COC(=O)c1nc(-c2ccc(C3CC3)c(F)c2)ccc1Cl` [F287, Methyl 3-chloro-6-(4-cyclopropyl-3-fluorophenyl) picolinate], for which the pest or weed control at 140 g/ha reads like this: under setting [1], 0 to 29%; under setting [2], 60 to 74%; under setting [3], 0 to 29%; under setting [4], 0 to 29%; under setting [5], 0 to 29%; under setting [6], 0 to 29%. Further, the pest or weed control at 140 g/ha under setting [7] lay in the range of 0 to 29%; the pest or weed control at 140 g/ha under setting [8] lay in the range of 0 to 29%; the pest or weed control at 140 g/ha under setting [9] was in the range of 0 to 29%; the pest or weed control at 140 g/ha under setting [10] lay within 0 to 29%; the pest or weed control at 140 g/ha under setting [11] lay in the range of 0 to 29%; the pest or weed control at 140 g/ha under setting [12] was 0 to 29%. Further, the pest or weed control at 140 g/ha is 0 to 29% under setting [13], 0 to 29% under setting [14] and 0 to 29% under setting [15].
Turning to `COC(=O)c1nc(-c2ccc(OS(C)(=O)=O)cc2Cl)ccc1Cl` [F288, methyl 3-chloro-6-(2-chloro-4-((methylsulfonyl)oxy)phenyl)picolinate], the pest or weed control at 140 g/ha fell in the range of 60 to 74% under setting [1]; 95 to 100% under setting [2]; 75 to 84% under setting [3]; 0 to 29% under setting [4]; 60 to 74% under setting [5]; 85 to 94% under setting [6]. Also, the pest or weed control at 140 g/ha is, setting by setting: under setting [7], 0 to 29%; under setting [8], 30 to 44%; under setting [9], 0 to 29%; under setting [10], 95 to 100%; under setting [11], 75 to 84%; under setting [12], 85 to 94%. Further, the pest or weed control at 140 g/ha was 85 to 94% under setting [13], 0 to 29% under setting [14] and 0 to 29% under setting [15].
On to `COC(=O)c1nc(-c2cccc(C(F)(F)F)c2F)ccc1Cl` [F289, Methyl 3-chloro-6-(2-fluoro-3-(trifluoromethyl)phenyl)picolinate], for which the pest or weed control at 140 g/ha lay within 0 to 29% under setting [1]; 45 to 59% under setting [2]; 0 to 29% under setting [3]; 0 to 29% under setting [4]; 0 to 29% under setting [5]; 0 to 29% under setting [6]. Besides, the pest or weed control at 140 g/ha under setting [7] lay within 0 to 29%; the pest or weed control at 140 g/ha under setting [8] was in the range of 0 to 29%; the pest or weed control at 140 g/ha under setting [9] was 0 to 29%; the pest or weed control at 140 g/ha under setting [10] was 30 to 44%; the pest or weed control at 140 g/ha under setting [11] lay in the range of 0 to 29%; the pest or weed control at 140 g/ha under setting [12] lay in the range of 30 to 44%. Also, the pest or weed control at 140 g/ha is 0 to 29% under setting [13], 0 to 29% under setting [14] and 0 to 29% under setting [15].
`COC(=O)c1nc(-c2cccc(OC(F)(F)F)c2F)ccc1Cl` [F290, Methyl 3-chloro-6-(2-fluoro-3-(trifluoromethoxy)phenyl)picolinate]: the pest or weed control at 140 g/ha reads like this: under setting [1], 0 to 29%; under setting [2], 75 to 84%; under setting [3], 0 to 29%; under setting [4], 0 to 29%; under setting [5], 0 to 29%; under setting [6], 0 to 29%. The pest or weed control at 140 g/ha by setting is: under setting [7], 0 to 29%; under setting [8], 0 to 29%; under setting [9], 0 to 29%; under setting [10], 0 to 29%; under setting [11], 0 to 29%; under setting [12], 0 to 29%. Also, the pest or weed control at 140 g/ha runs as follows: under setting [13], 0 to 29%; under setting [14], 0 to 29%; under setting [15], 60 to 74%.

For the origin of these results see patent US20230017045A1, “PYRIDINE AND PYRIMIDINE CARBOXYLATE HERBICIDES AND METHODS OF USE THEREOF” (Dow AgroSciences LLC, priority 2017, published 2023).
